# Laboratory results: patent US10940139B2, “Compounds that interact with the Ras superfamily for the treatment of cancers, inflammatory diseases, rasopathies, and fibrotic disease” (Shy Therapeutics LLC, priority 2017, dated 2021)
# Columns and labels:
# [1] = target: Rac-1 (Homo sapiens (Human), UniProt P63000); assay: Rac inhibition assay (labeled GTP); type: binding; settings: read-out: Rac-1 % Inh.
# [2] = target: KRas G12D/Q61H double mutant (Homo sapiens (Human), UniProt P01116, G12D/Q61H); assay: Ras GTP binding domain inhibition assay (labeled GTP); settings: at 20 μM; read-out: KRas G12D Q61H % Inh.
# In short: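 Ni-plate capture of His-KRas (3-10 μg/ml, o/n, 4° C); Tris pH 7.5/MgCl2/DTT buffer, 1% DMSO. Cpd 20 μM or titration, 3 h RT. Cy3/Cy5-GTP 45 min RT, wash, fluorescence of bound GTP.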
# [3] = target: Rho-A (Homo sapiens (Human), UniProt P61586); assay: Rho inhibition assay (labeled GTP); type: binding; settings: read-out: Rho-A % Inh.
# [4] = target: KRas G12D mutant protein (Homo sapiens (Human), UniProt P01116, G12D); assay: Ras GTP binding domain inhibition assay (labeled GTP); settings: at 20 μM; read-out: KRas G12D % Inh.
# Protocol: The following method was developed as specific assay for KRas G12D mutant protein.
# Buffer-I: • 50 mM Tris, pH 7.5 • 150 mM NaCl (optional) • 1 mM MgCl2 • 1 mM DTT. • KRas G12D mutant protein was expressed as a His-tagged protein. Purified His-KRas G12D protein was diluted in buffer-I to a final concentration of 3-10 μg/ml. • 200 μl of the diluted His-KRas G12D protein was added to a nickel coated 96 well plate and incubated overnight at 4° C. • The next day, wells were washed 3× in 200 μl of Buffer-I. • Then 200 μl of Buffer-I were added to each well in the presence of 1% DMSO. • Tested compounds were added to the protein-coated wells at a concentration of 20 μM, and incubated for 3 hours at room temperature. While performing IC50 measurements a serial dilution of all tested concentrations was prepared.
# Then 22 μl of Cy3-GTP or Cy5-GTP was added to each well. The labeled GTP was incubated for 45 min. at room temperature. • Following GTP incubation, wells were washed 3× in Buffer-I, and 200 μl of Buffer-I were added to each well. • Following washes, the amount of bound labeled-GTP was measured with an Eppendorf AF2200 plate reader.
# Sequence of Rho-A (P61586 whole entry, the tested form may be a part): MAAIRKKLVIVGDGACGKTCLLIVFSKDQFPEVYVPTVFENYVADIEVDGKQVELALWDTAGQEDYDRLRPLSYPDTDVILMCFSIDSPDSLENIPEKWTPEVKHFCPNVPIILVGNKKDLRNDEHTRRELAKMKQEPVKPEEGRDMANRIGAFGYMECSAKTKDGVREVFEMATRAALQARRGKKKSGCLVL
# Sequence of KRas G12D/Q61H double mutant (P01116-2 other isoform, or with tags, fused parts or gaps G12D/Q61H): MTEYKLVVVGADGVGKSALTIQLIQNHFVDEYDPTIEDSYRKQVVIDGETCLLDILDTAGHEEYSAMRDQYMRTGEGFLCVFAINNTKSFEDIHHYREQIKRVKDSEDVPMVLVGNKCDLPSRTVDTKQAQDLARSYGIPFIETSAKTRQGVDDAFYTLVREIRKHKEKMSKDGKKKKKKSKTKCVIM
# Sequence of KRas G12D mutant protein (P01116-2 other isoform, or with tags, fused parts or gaps G12D): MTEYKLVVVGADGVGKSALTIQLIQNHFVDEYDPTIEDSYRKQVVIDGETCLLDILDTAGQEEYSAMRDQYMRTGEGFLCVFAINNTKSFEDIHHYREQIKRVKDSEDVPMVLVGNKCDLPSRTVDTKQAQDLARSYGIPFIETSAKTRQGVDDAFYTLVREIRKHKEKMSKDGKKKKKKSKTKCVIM
SMILES,inhibition at 20 µM [1] [%],inhibition at 20 µM [2] [%],inhibition at 20 µM [3] [%],inhibition at 20 µM [4] [%]
Oc1nc(-c2ccccn2)nc2c(CC3CCCNC3)csc12 (stereo not drawn) [drawing 3807],51 to 75,25 to 50,76 to 100,–
COc1nc(-c2ccccn2)nc2c(C3CC3)csc12 [drawing 3808],0,1 to 25,0,–
COc1cnc(C2(N)CCCC2)nc1O [drawing 3809],1 to 25,1 to 25,1 to 25,–
COc1cnc(C(C)(C)N)nc1O [drawing 3810],1 to 25,1 to 25,0,–
COC(=O)c1c(C)sc2c(N)nc(-c3ccccn3)nc12 [drawing 3818],76 to 100,51 to 75,76 to 100,–
O=C(NCCc1ccncn1)c1csc2nc(-c3ccccn3)nc(N3CCOCC3)c12 [drawing 3819],51 to 75,25 to 50,51 to 75,–
CC(C)c1nn(C)cc1-c1csc2c(O)nc(-c3ccccn3)nc12 [drawing 3820],51 to 75,51 to 75,51 to 75,–
N#Cc1cccc(-c2csc3c(O)nc(-c4ccccn4)nc23)c1 [drawing 3822],1 to 25,1 to 25,1 to 25,–
Oc1nc(-c2ccccn2)nc2c(-c3cncnc3)csc12 [drawing 3823],1 to 25,1 to 25,1 to 25,–
Cc1c(-c2csc3c(O)nc(-c4ccccn4)nc23)cnn1C [drawing 3824],76 to 100,51 to 75,76 to 100,–
Oc1nc(-c2ccccn2)nc2c(-c3cncc(C(F)F)c3)csc12 [drawing 3826],1 to 25,1 to 25,0,–
Cc1sc2c(O)nc(-c3ccccn3)nc2c1C(=O)N1CCN(c2ccccc2)CC1 [drawing 3827],76 to 100,25 to 50,76 to 100,–
Oc1nc(-c2ccccn2)nc2c(C3CCCCC3)csc12 [drawing 3830],25 to 50,25 to 50,51 to 75,–
COc1cnc(CNC(=O)c2csc3nc(-c4ccccn4)nc(N)c23)[nH]c1=O [drawing 3835],25 to 50,25 to 50,51 to 75,–
Oc1nc(-c2ccccn2)nc2c(CC3CNC3)csc12 [drawing 3837],76 to 100,25 to 50,76 to 100,–
COc1cnc(CNC(=O)c2csc3c(O)nc(-c4ccccn4)nc23)[nH]c1=O [drawing 3838],1 to 25,1 to 25,1 to 25,–
COc1cnc(CNC(=O)c2cc3nc(-c4ccccn4)nc(O)c3s2)[nH]c1=O [drawing 3839],51 to 75,25 to 50,51 to 75,–
Cc1sc2c(O)nc(-c3ccccn3)nc2c1Br [drawing 3840],25 to 50,25 to 50,51 to 75,–
COc1cnc(CNC(=O)c2sc3c(O)nc(-c4ccccn4)nc3c2C)[nH]c1=O [drawing 3842],0,1 to 25,1 to 25,–
Cn1cnc(-c2nc(O)c3c(-c4ccccc4)c(-c4ccncc4)sc3n2)c1 [drawing 3846],0,1 to 25,0,–
COCCNc1nc(-c2ccccn2)nc(-c2cccc(OCCN(C)C)c2)c1Oc1ccccc1 [drawing 3847],1 to 25,1 to 25,1 to 25,–
OCC1(c2ccc(-c3nc(-c4ccccn4)nc(-c4ccc(C5(CO)CC5)cc4)c3Oc3ccccc3)cc2)CC1 [drawing 3850],25 to 50,1 to 25,25 to 50,–
Cn1ccnc1-c1nc(O)c2c(-c3ccccc3)c(-c3ccccc3)sc2n1 [drawing 3854],1 to 25,1 to 25,1 to 25,–
Cn1cnc(-c2nc(O)c3c(-c4ccccc4)c(-c4ccc(CNC(=O)OC(C)(C)C)cc4)sc3n2)c1 [drawing 3855],25 to 50,1 to 25,25 to 50,–

SMILES,inhibition at 20 µM [1] [%],inhibition at 20 µM [2] [%],inhibition at 20 µM [3] [%],inhibition at 20 µM [4] [%]
Nc1nc(O)c2sc(-c3cccc(C(=O)NC4CCNC4=O)c3)cc2n1 (stereo not drawn) [drawing 3860],1 to 25,1 to 25,1 to 25,–
Nc1nc(O)c2sc(-c3cccc(C(=O)N4CCC(O)C4)c3)cc2n1 (stereo not drawn) [drawing 3861],1 to 25,1 to 25,1 to 25,–
NC(=O)C1CCCN1C(=O)c1cccc(-c2cc3nc(N)nc(O)c3s2)c1 (stereo not drawn) [drawing 3862],0,0,0,–
Nc1nc(O)c2sc(-c3cccc(C(=O)NCc4ncc[nH]4)c3)cc2n1 [drawing 3863],0,0,0,–
Nc1nc(O)c2sc(-c3cccc(C(=O)NCc4cccc(O)n4)c3)cc2n1 [drawing 3864],1 to 25,0,0,–
COC(=O)c1nc(-c2ccccn2)nc(O)c1O [drawing 3865],76 to 100,51 to 75,76 to 100,–
Oc1nc(-c2ccccn2)nc2c(-c3ccccc3)c(-c3ccncc3)sc12 [drawing 3866],76 to 100,0,51 to 75,–
Cn1cnc(-c2nc(O)c3sc(-c4ccncc4)c(-c4ccccc4)c3n2)c1 [drawing 3867],1 to 25,0,25 to 50,–
COCC(C)Nc1nc(-c2ccccn2)nc(C(=O)NCCCc2c[nH]cn2)c1Oc1ccccc1 (stereo not drawn) [drawing 3868],25 to 50,1 to 25,25 to 50,–
Nc1nc(-c2ccccn2)nc(C(=O)NCCc2ccncc2)c1Oc1ccccc1 [drawing 3869],51 to 75,25 to 50,25 to 50,–
COc1nc(-c2ccccn2)nc(Oc2cccc(C(F)(F)F)c2)c1OC [drawing 3870],1 to 25,1 to 25,0,–
Oc1nc(-c2ccccn2)nc2c(Br)c(-c3ccccc3)sc12 [drawing 3871],25 to 50,0,1 to 25,–
CC(C)(C)c1sc2c(O)nc(-c3ccccn3)nc2c1Br [drawing 3872],25 to 50,25 to 50,25 to 50,–
Cc1ccc(-c2cc3nc(-c4ccccn4)nc(O)c3s2)cc1 [drawing 3873],1 to 25,0,0,–
Oc1nc(-c2ccccn2)nc2cc(-c3ccccc3Cl)sc12 [drawing 3874],51 to 75,1 to 25,51 to 75,–
Oc1nc(-c2ccccn2)nc2cc(-c3ccc(-c4ccccc4)cc3)sc12 [drawing 3877],0,1 to 25,1 to 25,–
Cc1ccc(-c2csc3c(O)nc(-c4ccccn4)nc23)cc1 [drawing 3878],0,1 to 25,25 to 50,–
COc1ccc(-c2cc3nc(-c4ccccn4)nc(O)c3s2)cc1 [drawing 3881],0,1 to 25,1 to 25,–
Oc1nc(-c2ccccn2)nc2cc(-c3cccc(Br)c3)sc12 [drawing 3882],1 to 25,25 to 50,25 to 50,–
COc1nc(-c2ccccn2)nc(Oc2cccc(C(F)(F)F)c2)c1O [drawing 3883],76 to 100,–,1 to 25,51 to 75
COCCN(C)c1nc(-c2nccn2C)nc2sc(-c3ccccc3)c(-c3ccccc3)c12 [drawing 3884],25 to 50,–,25 to 50,51 to 75
CC(C)OCCNc1nc(-c2nccn2C)nc2sc(-c3ccccc3)c(-c3ccccc3)c12 [drawing 3885],25 to 50,–,25 to 50,51 to 75
Cn1ccnc1-c1nc(NCCOC(F)(F)F)c2c(-c3ccccc3)c(-c3ccccc3)sc2n1 [drawing 3886],25 to 50,–,25 to 50,25 to 50
